One test relates to Progesterone(h) (PR). The test is described as follows: Progesterone(h) (PR) binding assay. More on the design: species or system human. Particulars: 1.0E−05 M.
The next test addresses T1, Phosphodiesterase 2(h) (Homo sapiens, UniProt O00408).
T1 construct: differentiated U-; endogenous in cells; host or cells: differentiated U-937 cells
The test is described as follows: Phosphodiesterase 2(h) enzyme assay. Particulars: 1.0E−05 M. It counts as biochemical.

Another test relates to Phosphodiesterase 1. The test is described as follows: Phosphodiesterase 1 enzyme assay. It counts as biochemical, bovine. As to conditions: 1.0E−05 M.
The next test concerns the target T2, NK2(h) (Homo sapiens, UniProt P21452).
T2 construct: expressed in transfected cells; host or cells: CHO cells
The test is described as follows: NK2(h) binding assay. Particulars: 1.0E−05 M; read-out: % Inhibition of Control Specific Binding.

In test [1] the target is Ca^2+ channel (L, diltiazem site) (benzothiazepines) (Rattus norvegicus, UniProt P22002). The test is described as follows: Ca^2+ channel (L, diltiazem site) binding assay. As to conditions: read-out: % Inhibition of Control Specific Binding.
Chain of Ca^2+ channel (L, diltiazem site) (benzothiazepines) (P22002 whole entry): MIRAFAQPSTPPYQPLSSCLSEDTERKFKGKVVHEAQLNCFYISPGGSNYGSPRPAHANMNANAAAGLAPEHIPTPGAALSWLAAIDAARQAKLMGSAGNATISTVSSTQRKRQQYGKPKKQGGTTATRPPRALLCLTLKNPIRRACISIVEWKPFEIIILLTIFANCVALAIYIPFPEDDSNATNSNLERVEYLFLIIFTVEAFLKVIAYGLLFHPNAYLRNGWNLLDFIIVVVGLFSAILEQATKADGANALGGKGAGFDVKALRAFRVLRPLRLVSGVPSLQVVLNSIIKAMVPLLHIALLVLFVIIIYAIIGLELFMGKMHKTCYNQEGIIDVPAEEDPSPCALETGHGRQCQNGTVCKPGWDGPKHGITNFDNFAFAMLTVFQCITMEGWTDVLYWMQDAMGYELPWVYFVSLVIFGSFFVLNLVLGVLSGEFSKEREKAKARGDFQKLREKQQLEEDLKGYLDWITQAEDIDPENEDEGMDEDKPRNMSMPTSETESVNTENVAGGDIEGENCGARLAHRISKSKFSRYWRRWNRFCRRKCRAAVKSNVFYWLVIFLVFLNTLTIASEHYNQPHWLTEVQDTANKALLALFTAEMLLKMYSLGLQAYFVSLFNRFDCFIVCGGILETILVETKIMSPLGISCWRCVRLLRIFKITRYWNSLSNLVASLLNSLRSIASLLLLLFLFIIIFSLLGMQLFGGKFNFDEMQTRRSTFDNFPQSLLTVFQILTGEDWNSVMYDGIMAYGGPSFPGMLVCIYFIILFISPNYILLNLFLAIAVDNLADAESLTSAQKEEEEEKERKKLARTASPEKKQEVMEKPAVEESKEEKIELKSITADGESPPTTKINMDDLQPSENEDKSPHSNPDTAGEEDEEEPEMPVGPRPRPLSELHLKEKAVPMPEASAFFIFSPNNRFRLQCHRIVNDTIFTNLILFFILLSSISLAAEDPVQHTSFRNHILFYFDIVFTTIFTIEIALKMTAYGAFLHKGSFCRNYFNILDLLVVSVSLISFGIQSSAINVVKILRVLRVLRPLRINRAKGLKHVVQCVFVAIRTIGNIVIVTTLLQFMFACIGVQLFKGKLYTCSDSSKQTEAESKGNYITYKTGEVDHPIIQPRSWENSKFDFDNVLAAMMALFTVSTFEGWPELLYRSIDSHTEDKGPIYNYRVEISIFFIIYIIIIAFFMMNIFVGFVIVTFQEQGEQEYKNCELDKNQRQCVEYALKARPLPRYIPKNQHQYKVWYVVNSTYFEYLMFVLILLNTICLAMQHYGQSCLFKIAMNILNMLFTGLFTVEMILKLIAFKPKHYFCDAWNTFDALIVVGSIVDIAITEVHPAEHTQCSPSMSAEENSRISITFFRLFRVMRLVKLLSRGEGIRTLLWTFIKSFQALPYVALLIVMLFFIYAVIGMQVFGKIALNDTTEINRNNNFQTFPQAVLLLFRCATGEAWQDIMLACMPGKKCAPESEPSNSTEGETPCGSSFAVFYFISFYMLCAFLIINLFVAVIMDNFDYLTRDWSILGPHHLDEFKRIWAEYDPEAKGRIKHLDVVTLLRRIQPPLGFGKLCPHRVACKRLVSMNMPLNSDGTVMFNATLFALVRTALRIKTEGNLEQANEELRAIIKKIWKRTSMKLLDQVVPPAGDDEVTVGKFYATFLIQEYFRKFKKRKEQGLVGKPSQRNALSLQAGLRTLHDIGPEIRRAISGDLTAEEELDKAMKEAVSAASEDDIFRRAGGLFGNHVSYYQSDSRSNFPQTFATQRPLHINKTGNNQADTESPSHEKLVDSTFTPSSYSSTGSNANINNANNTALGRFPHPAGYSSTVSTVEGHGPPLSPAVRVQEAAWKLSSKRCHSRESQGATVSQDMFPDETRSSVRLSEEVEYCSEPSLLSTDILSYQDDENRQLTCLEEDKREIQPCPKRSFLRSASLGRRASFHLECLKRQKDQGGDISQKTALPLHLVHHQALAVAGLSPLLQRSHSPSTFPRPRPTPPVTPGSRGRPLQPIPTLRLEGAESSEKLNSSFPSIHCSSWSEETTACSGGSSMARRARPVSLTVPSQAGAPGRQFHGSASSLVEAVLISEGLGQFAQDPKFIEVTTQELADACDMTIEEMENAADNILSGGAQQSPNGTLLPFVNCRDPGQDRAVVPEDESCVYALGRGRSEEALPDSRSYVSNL
A further test addresses T3, ETB(h) (Homo sapiens, UniProt P24530).
T3 construct: expressed in transfected cells; host or cells: CHO cells
The test is described as follows: ETB(h) binding assay. As to conditions: read-out: % Inhibition of Control Specific Binding.

The target of another test is T4, DA transporter(h) (Homo sapiens, UniProt Q01959).
T4 construct: expressed in transfected cells; host or cells: CHO cells
T4 sequence (Q01959 whole entry): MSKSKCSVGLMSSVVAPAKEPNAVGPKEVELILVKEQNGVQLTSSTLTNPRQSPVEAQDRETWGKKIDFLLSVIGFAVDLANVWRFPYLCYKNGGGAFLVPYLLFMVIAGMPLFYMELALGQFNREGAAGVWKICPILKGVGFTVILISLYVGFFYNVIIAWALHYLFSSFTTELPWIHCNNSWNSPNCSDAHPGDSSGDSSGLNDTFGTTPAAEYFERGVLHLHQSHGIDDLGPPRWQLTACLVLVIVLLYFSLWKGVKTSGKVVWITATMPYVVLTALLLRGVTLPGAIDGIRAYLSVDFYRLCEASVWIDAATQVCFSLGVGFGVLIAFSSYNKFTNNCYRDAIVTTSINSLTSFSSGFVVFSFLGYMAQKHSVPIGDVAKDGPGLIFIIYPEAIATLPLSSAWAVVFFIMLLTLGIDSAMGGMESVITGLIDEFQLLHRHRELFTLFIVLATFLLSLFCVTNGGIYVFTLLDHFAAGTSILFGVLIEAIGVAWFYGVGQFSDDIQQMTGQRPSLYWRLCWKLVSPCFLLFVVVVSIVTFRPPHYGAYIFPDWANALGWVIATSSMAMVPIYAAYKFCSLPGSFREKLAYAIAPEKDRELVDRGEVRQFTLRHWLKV
The test is described as follows: DA transporter(h) binding assay. Particulars: 1.0E−05 M; read-out: % Inhibition of Control Specific Binding.

The next test concerns PCP. The test is described as follows: PCP binding assay. Set-up: species or system rat. As to conditions: 1.0E−05 M.
For the next test, the target named is T5, H2(h) (Homo sapiens, UniProt P25021).
T5 construct: expressed in transfected cells; host or cells: CHO cells
T5 sequence (P25021 whole entry): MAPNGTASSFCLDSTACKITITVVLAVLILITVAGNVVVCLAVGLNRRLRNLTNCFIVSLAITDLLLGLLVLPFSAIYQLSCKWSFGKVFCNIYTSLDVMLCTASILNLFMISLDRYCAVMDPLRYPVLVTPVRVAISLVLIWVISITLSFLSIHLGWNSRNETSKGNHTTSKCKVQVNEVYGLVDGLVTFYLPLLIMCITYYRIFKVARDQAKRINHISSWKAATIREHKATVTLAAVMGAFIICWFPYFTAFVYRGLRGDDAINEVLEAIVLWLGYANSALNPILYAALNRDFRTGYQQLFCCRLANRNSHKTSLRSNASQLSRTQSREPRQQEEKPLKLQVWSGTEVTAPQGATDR
The test is described as follows: H2(h) binding assay. As to conditions: read-out: % Inhibition of Control Specific Binding.

The target of a further test is T6, A1(h) (Homo sapiens, UniProt P30542).
T6 construct: expressed in transfected cells; host or cells: CHO cells
The test is described as follows: A1(h) binding assay. As to conditions: 1.0E−05 M; read-out: % Inhibition of Control Specific Binding.

In the next test the target is T7, D3(h) (Homo sapiens, UniProt P35462).
T7 construct: expressed in transfected cells; host or cells: CHO cells
The test is described as follows: D3(h) binding assay. Particulars: 1.0E−05 M; read-out: % Inhibition of Control Specific Binding.

Another test deals with T8, LTD4(h) (Homo sapiens, UniProt Q9Y271).
T8 construct: LTD4(h); U-937 cells; LTD4; Frey et al. (1993); endogenous in cells; host or cells: U-937 cells
The test is described as follows: LTD4(h) binding assay. As to conditions: read-out: % Inhibition of Control Specific Binding.

Another test concerns the target T9, ATPase (Na^+/K^+) (Canis lupus familiaris, UniProt P50997).
T9 construct: dog kidney; from tissue; host or cells: dog kidney
The test is described as follows: ATPase (Na^+/K^+) enzyme assay. As to conditions: 1.0E−05 M. The class given is biochemical, dog.

The test system of the next test is P2Y. The test is described as follows: P2Y binding assay. More on the design: species or system rat. As to conditions: 1.0E−05 M.

SMILES strings stand for the structures.

The term inhibition denotes the relative decrease from the control value, in per cent.

T3 sequence (P24530 27-442): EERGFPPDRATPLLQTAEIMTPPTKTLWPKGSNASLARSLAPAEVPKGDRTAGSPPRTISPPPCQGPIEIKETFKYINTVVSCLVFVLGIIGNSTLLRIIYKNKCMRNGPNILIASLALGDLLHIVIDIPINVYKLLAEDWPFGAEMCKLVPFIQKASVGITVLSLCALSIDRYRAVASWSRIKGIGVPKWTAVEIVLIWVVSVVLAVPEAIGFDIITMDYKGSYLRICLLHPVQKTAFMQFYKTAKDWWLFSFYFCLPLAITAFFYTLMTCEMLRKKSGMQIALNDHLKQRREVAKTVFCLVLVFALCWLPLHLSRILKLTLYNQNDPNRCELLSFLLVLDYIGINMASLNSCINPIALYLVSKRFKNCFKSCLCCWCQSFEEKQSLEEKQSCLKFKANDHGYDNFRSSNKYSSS
T2 sequence (P21452 whole entry): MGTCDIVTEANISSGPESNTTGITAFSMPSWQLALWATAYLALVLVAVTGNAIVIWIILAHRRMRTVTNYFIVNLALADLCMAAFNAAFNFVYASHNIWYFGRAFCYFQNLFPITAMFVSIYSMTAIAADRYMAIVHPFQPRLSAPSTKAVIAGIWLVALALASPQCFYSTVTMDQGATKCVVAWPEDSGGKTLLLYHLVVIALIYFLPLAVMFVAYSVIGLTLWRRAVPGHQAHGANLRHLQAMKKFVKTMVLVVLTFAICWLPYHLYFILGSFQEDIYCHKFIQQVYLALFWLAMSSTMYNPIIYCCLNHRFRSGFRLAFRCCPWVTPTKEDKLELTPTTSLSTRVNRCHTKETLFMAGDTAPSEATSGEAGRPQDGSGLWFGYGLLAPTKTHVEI
T1 sequence (O00408 whole entry): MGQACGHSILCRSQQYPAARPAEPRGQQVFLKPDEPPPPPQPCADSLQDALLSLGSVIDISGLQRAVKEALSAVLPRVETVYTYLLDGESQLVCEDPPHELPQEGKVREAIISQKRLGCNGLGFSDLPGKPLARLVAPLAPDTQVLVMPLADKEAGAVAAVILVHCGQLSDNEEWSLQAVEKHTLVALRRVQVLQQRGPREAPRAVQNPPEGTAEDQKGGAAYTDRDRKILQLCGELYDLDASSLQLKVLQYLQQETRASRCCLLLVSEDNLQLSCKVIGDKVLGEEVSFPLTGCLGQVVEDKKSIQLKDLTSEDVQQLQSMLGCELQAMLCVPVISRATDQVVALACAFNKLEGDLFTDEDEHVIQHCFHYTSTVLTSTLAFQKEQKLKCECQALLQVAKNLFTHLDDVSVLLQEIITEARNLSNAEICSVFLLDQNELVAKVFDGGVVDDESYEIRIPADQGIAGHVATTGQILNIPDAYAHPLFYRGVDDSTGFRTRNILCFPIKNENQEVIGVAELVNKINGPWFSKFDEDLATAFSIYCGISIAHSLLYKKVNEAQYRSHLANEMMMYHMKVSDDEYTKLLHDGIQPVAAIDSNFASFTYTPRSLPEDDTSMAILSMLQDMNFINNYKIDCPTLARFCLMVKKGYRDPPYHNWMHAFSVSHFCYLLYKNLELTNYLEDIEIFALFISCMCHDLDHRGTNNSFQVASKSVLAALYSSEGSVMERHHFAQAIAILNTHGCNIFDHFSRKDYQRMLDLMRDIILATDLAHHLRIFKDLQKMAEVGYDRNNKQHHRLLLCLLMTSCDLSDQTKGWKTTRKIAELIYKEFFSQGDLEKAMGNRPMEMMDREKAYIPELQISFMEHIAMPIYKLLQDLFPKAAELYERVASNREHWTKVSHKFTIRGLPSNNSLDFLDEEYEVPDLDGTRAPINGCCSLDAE

For the molecule `N#Cc1ccc2c(ccn2CCCCCB(O)O)c1` [Example 20, 5-(5-cyano-1H-indol-1-yl)pentylboronic acid], the figures for the “% Inhibition of Control Specific Binding” value in the test with Progesterone(h) (PR), in the test on PCP and in the test with P2Y were 79%, 5% and −19%, respectively. For the same molecule, the entries for the “% Inhibition of Control Values” on Phosphodiesterase 2(h), in the test on Phosphodiesterase 1 and at ATPase (Na^+/K^+) were 95%, 7% and 8%, respectively. Moreover, the inhibition at 10 µM on NK2(h) is -2%; in test [1], -1%; at ETB(h), 10%; on DA transporter(h), 47%; on H2(h) it was 15%; at A1(h), 7%. The inhibition at 10 µM at D3(h) worked out at 4%; at LTD4(h) it was 12%.

These data come from patent US20090264384A1, “INDOLE, BENZIMIDAZOLE, AND BENZOLACTAM BORONIC ACID COMPOUNDS, ANALOGS THEREOF AND METHODS OF USE THEREOF” (Nuada, Inc., priority 2004, published 2009).
